Measurements reported in PMC6440977, “Nucleoside analogue activators of cyclic AMP-independent protein kinase A of Trypanosoma” (Nature Communications, 2019).
Where “and” joins values, the source holds several entries; their conditions need not be identical. Equal entries are not always repeated. Where two headings read alike, the source gives them in different places.

Experiments:
T. brucei proteome = assay: Label-free quantitative proteomics; type: cell-based, Trypanosoma brucei
Procedure: Trypanosomes treated or not with 2 µM 7-CN-7-C-Ino (time course: 0 h, 6 h, 12 h) were washed twice in phosphate buffered saline (PBS) and lysed in Laemmli sample buffer to a concentration of 2.5×10^5 cells µl -1. Protein concentration was determined by Colloidal Coomassie Blue staining and densitometry. 20 µg of protein were loaded on a 10% acrylamide SDS-PAGE gel. Migration was stopped when samples had entered the resolving gel and proteins were visualized by Colloidal Coomassie Blue staining. Each SDS-PAGE band was cut into 1 mm × 1 mm gel pieces and further processed as described previously 26.
Online nanoLC-MS/MS analyses were performed using an Ultimate 3000 RSLC Nano-UPHLC system (Thermo Scientific, USA) coupled to a nanospray Q-Exactive hybrid quadrupole-Orbitrap mass spectrometer (Thermo Scientific, USA). 1 µg of each peptide extract was loaded on a 300 µm ID x 5 mm PepMap C18 precolumn (Thermo Scientific, USA) at a flow rate of 20 µl min -1. After a 3 min desalting step, peptides were separated on a 75 µm ID x 25 cm C 18 Acclaim PepMap® RSLC column (Thermo Scientific, USA) with a 4-40% linear gradient of solvent B (0.1% formic acid in 80% ACN) in 108 min. The separation flow rate was set at 300 nl min-1. The mass spectrometer operated in positive ion mode at a 1.8 kV needle voltage. Data was acquired using Xcalibur 3.1 software in a data-dependent mod e. MS scans (m/z 300-1,600) were recorded at a resolution of R = 70,000 (@ m/z 200) and an AGC target of 3×10 6 ions collected within 100 ms. Dynamic exclusion was set to 30 s and top 12 ions were selected from fragmentation in HCD mode. MS/MS scans with a target value of 1×10 5 ions

human PKARIα = target: T1, human PKARIα (Homo sapiens, UniProt P10644); assay: Binding by isothermal titration calorimetry (ITC)
T1 construct: The full length ORFs (amplified with primers introducing the respective); 6xHis followed by TEV site (N); made in house; host or cells: E. coli Rosetta D3
T1 sequence (P10644 whole entry): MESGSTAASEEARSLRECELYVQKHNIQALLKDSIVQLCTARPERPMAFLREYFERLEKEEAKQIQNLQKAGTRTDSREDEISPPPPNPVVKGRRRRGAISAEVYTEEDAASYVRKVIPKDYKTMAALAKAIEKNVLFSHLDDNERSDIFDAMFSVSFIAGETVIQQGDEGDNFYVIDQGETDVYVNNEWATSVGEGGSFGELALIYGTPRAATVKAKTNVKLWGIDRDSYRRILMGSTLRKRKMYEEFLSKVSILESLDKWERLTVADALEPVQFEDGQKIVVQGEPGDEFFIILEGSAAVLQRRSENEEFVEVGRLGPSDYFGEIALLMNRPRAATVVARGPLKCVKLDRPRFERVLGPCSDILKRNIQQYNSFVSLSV

[1] = system: RXXS*/T* site phosphorylation; assay: Western blot of global RXXS*/T* site phosphorylation (phospho-PKA substrate antibody); type: cell-based, Trypanosoma brucei; settings: wild type, 2 µM, 10 min
[2] = system: T. brucei phosphoproteome; assay: Quantitative phosphoproteomics; type: cell-based, Trypanosoma brucei
Procedure: For each sample, 6 × 10^8 T. brucei cells treated or not with 8 µM 7-cyano-7-deazainosine for 15 min were lysed in 300 µl 4% (w/v) sodium deoxycholate, 0.1 M Tris, pH 8.5 for 5 min at 95 °C (according to the protocol of Humphrey et al.[78]). Samples were sonicated using a Bioruptor (Diagenode) (high power, two cycles of 10 min each, 30 s on/off). Protein concentration was determined by BCA protein assay and samples were adjusted to equal concentrations. Sample preparation and mass spectrometry were exactly carried out as described by Humphrey et al.[78]. MaxQuant 1.5.2.8[79] was used to identify proteins and quantify by LFQ with the following parameters: Database, TriTrypDB-39_TbruceiTREU927_AnnotatedProteins; MS tol, 10 ppm; MS/MS tol, 0.5 Da; Peptide FDR, 0.1; Protein FDR, 0.01 Min. peptide Length, 5; Variable modifications, Oxidation (M), Phosphorylation (STY); Fixed modifications, Carbamidomethyl (C); Peptides for protein quantitation, razor and unique; Min. peptides, 1; Min. ratio count, 2. For proteomic analysis, identified proteins were considered as statistically significant with FDR ≤ 0.05 and s0 = 1 (two-sided Student’s T-test adjusted for multiple comparisons by Benjamini–Hochberg correction, Perseus[80]). […] The mass spectrometry phosphoproteomics data have been deposited to the ProteomeExchange Consortium via the PRIDE partner repository (https://www.ebi.ac.uk/pride/archive) with the dataset identifier PXD012245. GO enrichment analysis was performed in TriTrypDB with default settings and visualized in Revigo (http://revigo.irb.hr). The motif discovery tool MoMo (using the motif-x algorithm) implemented in the MEME suite (http://meme-suite.org/) was used for unbiased motif discovery in the phosphoproteome dataset with the T. brucei TriTrypDB-40_TbruceiTREU927 protein database as background. Enriched sequence logos were visualized using CLC Main Workbench 7 (https://www.qiagenbioinformatics.com/).

metacaspase 4 (MCA4) = type: cell-based, Trypanosoma brucei; settings: for MCA4 counts / MCA4 normalized / MCA4 fold change: 4 µM; for MCA4 normalized: normalized to PFR-A/C; for MCA4 fold change: untreated WT set to 1
[3] = target: T. brucei PKAR-PKAC1 holoenzyme (Trypanosoma brucei, UniProt Q9GU80); assay: biochemical; type: biochemical; settings: for In vitro kinase assay: technical replicates
T. brucei PKAR-PKAC1 holoenzyme, sequence (Q38DR5 entry or part of it): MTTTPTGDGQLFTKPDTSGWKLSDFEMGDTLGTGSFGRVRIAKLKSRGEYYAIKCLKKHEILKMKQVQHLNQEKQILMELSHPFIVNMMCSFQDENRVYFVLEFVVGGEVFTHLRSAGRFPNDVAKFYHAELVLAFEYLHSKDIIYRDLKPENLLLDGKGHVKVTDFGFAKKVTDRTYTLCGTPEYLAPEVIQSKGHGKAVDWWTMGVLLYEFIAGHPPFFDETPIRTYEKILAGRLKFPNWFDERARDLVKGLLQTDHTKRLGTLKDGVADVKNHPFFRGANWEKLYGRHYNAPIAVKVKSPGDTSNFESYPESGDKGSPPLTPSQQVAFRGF
T. brucei PKAR-PKAC1 holoenzyme, sequence (Q9GU80 entry or part of it): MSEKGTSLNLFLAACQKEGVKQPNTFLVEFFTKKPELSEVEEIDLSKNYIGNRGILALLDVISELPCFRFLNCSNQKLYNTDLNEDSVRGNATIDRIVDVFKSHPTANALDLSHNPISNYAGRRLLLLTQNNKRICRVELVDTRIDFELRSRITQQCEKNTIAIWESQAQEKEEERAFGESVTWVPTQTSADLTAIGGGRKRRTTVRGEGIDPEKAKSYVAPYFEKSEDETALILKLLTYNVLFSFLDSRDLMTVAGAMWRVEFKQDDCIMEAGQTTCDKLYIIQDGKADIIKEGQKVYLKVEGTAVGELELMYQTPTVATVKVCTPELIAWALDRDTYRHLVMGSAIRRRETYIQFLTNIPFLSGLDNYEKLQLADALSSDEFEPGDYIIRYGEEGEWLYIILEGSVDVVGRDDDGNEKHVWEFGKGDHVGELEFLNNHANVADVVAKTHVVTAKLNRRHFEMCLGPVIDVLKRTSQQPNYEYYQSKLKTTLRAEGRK

[4] = WT trypanosomes, 12 hours treatment vs untreated, LFQ, three independent replicates
[5] = treated (Act) vs control (Crtl), significant, FDR ≤ 0.05, s0=2, 4 replicates

N#Cc1cn([C@@H]2O[C@H](CO)[C@@H](O)[C@H]2O)c2ncnc(O)c12 [7-CN-7-C-Ino, 7-Cyano-7-deazainosine]
fold regulation KO12 vs KO0 (up/down), Tb927.2.5820 hypothetical protein (T. brucei proteome; PKAR knock out trypanosomes, 12 hours treatment vs untreated, LFQ, three independent replicates): 1.69 ± 0.28 fold | fold regulation WT12 vs WT0 (up/down), Tb927.10.12510 P-type H+-ATPase (T. brucei proteome; [4]): 0.60 ± 0.03 fold | fold regulation WT12 vs WT0 (up/down), Tb927.10.2440 Metacaspase-4 (T. brucei proteome; [4]): 0.65 ± 0.03 fold | fold regulation WT12 vs WT0 (up/down), Tb927.10.8440 glucose transporter (T. brucei proteome; [4]): 1.56 ± 0.16 fold | fold regulation WT12 vs WT0 (up/down), Tb927.11.14750 PSP1 C-terminal conserved region (T. brucei proteome; [4]): 0.52 ± 0.04 fold | fold regulation WT12 vs WT0 (up/down), Tb927.2.5820 hypothetical protein (T. brucei proteome; [4]): 1.82 ± 0.31 fold | fold regulation WT12 vs WT0 (up/down), Tb927.4.4310 Nucleoporin NUP64 (T. brucei proteome; [4]): 0.65 ± 0.05 fold | fold regulation WT12 vs WT0 (up/down), Tb927.7.3450 I/6 autoantigen (T. brucei proteome; [4]): 1.58 ± 0.04 fold | fold regulation WT12 vs WT0 (up/down), Tb927.7.7520;Tb927.7.7530 receptor-type adenylate cyclase GRESAG 4 (T. brucei proteome; [4]): 0.65 ± 0.02 fold | fold regulation WT12 vs WT0 (up/down), Tb927.8.6760 IgE-dep. histamine-releasing factor (T. brucei proteome; [4]): 0.66 ± 0.01 fold | fold regulation WT12 vs WT0 (up/down), Tb927.8.7780 hypothetical protein (T. brucei proteome; [4]): 1.55 ± 0.08 fold | fold regulation WT12 vs WT0 (up/down), Tb927.9.10100 hypothetical protein (T. brucei proteome; [4]): 0.53 ± 0.02 fold | fold regulation WT12 vs WT0 (up/down), Tb927.9.11100 cAMP-dependent protein kinase catalytic subunit 1 (T. brucei proteome; [4]): 0.36 ± 0.01 fold | fold regulation WT12 vs WT0 (up/down), Tb927.9.12380 Histidine phosphatase superfamily (branch 1) (T. brucei proteome; [4]): 0.48 ± 0.11 fold | fold regulation WT12 vs WT0 (up/down), Tb927.9.2670 Engulfment and cell motility domain-containing protein (T. brucei proteome; [4]): 1.70 ± 0.08 fold | significantly regulated proteins, in words (T. brucei proteome; wild type, 6 h post induction): No significantly regulated proteins | significantly regulated proteins (number) (T. brucei proteome; wild type, 12 h post induction, ≥[…], p ≤ 0.05): 14 | binding to purified human PKARIα, in words (human PKARIα): did not bind | increase in global RXXS*/T* site phosphorylation [1]: 3–4 fold | downregulated phosphosites (number) ([2]; 8 µM, 15 min): 84 | downregulated phosphosites containing PKA motifs ([2]; 8 µM, 15 min): 19% | upregulated phosphosites containing PKA motifs ([2]; 8 µM, 15 min): 77% | significantly upregulated phosphosites (number) ([2]; 8 µM, 15 min, FDR ≤ 0.05, s0 = 2): 642 | Difference, phosphopeptide Tb11.v5.1036.1 gamma-tubulin complex subunit, putative, S120 [2, 5]: 3.988 | Difference, phosphopeptide Tb927.10.630 hypothetical protein, conserved, S331 [2, 5]: 2.868 | Difference, phosphopeptide Tb927.10.8410 hypothetical protein, conserved, S234 [2, 5]: 2.478 | Western quantification, KO + Ino (metacaspase 4 (MCA4); KO cells + Ino, normalized to PFR, WT set to 1, individual replicates, protein not given): 0.3769 and 0.643 and 0.8892 | Western quantification, WT + Ino (metacaspase 4 (MCA4); WT cells + Ino, normalized to PFR, WT set to 1, individual replicates, protein not given): 3.707 and 4.121 and 2.558 | MCA4 counts (metacaspase 4 (MCA4); WT, 12 h): 9.21 | MCA4 normalized (metacaspase 4 (MCA4); WT, 12 h): 5.616 | MCA4 fold change (metacaspase 4 (MCA4); WT, 12 h): 0.3804 | MCA4 counts (metacaspase 4 (MCA4); WT, 18 h): 7.41 | MCA4 normalized (metacaspase 4 (MCA4); WT, 18 h): 5.37 | MCA4 fold change (metacaspase 4 (MCA4); WT, 18 h): 0.3637 | MCA4 counts (metacaspase 4 (MCA4); WT, 24 h): 7.18 | MCA4 normalized (metacaspase 4 (MCA4); WT, 24 h): 4.603 | MCA4 fold change (metacaspase 4 (MCA4); WT, 24 h): 0.3117 | MCA4 counts (metacaspase 4 (MCA4); pkar KO, 12 h): 8.83 | MCA4 normalized (metacaspase 4 (MCA4); pkar KO, 12 h): 0.3995 | MCA4 fold change (metacaspase 4 (MCA4); pkar KO, 12 h): 0.8235 | MCA4 counts (metacaspase 4 (MCA4); pkar KO, 18 h): 9.5 | MCA4 normalized (metacaspase 4 (MCA4); pkar KO, 18 h): 0.5278 | MCA4 fold change (metacaspase 4 (MCA4); pkar KO, 18 h): 1.088 | MCA4 counts (metacaspase 4 (MCA4); pkar KO, 24 h): 10.63 | MCA4 normalized (metacaspase 4 (MCA4); pkar KO, 24 h): 0.3562 | MCA4 fold change (metacaspase 4 (MCA4); pkar KO, 24 h): 0.7342 | MCA4 abundance, in words (metacaspase 4 (MCA4); wild type, 12 h post induction): decreased | In vitro kinase assay ([3]; 0.00014 µM): 0.05 U/ml and 0.04 U/ml (2×) | In vitro kinase assay ([3]; 0.00041 µM): 0.05 U/ml | In vitro kinase assay ([3]; 0.00123 µM): 0.08 U/ml and 0.07 U/ml (2×) | In vitro kinase assay ([3]; 0.0037 µM): 0.12 U/ml | In vitro kinase assay ([3]; 0.01111 µM): 0.16 U/ml (2×) and 0.18 U/ml | In vitro kinase assay ([3]; 0.03333 µM): 0.2 U/ml and 0.19 U/ml (2×) | In vitro kinase assay ([3]; 0.1 µM): 0.18 U/ml and 0.17 U/ml and 0.19 U/ml | In vitro kinase assay ([3]; 0.3 µM): 0.17 U/ml and 0.2 U/ml and 0.16 U/ml | higher activation potency on purified holoenzyme compared to Toyo ([3]; ratio of EC50): 36 fold
